The values below come from ChEMBL document CHEMBL1122193, “Design of potent and selective antagonists of the vasopressor responses to arginine-vasopressin” (J Med Chem, 1982).

Residues, ends and D or L forms follow the SMILES beside them.

The test system of experiment [1] is Rattus norvegicus. Kind of experiment: Antidiuretic activity in intravenous antidiuretic assay in rats under ethanol anesthesia. It is filed as functional, Urine.
For experiment [2], the species on record is Rattus norvegicus. The experiment is described as follows: Effective dose for anti-vasopressor potency to reduce the response to 2x units of agonist to equal the response to 1x units. It is filed as functional.
Experiment [3] is filed under the species Rattus norvegicus. The experiment is described as follows: In vitro anti-oxytocic potency was recorded in absence of Mg2+ in rat uteri. It counts as functional. The following applies: read-out: pA2 (converted).
The species entered for experiment [4] is Rattus norvegicus. The experiment is described as follows: In vitro anti-oxytocic potency was recorded in presence of 0.5 mM Mg2+ in rat uteri. It counts as functional. As to conditions: read-out: pA2 (converted).
Experiment [5] concerns Rattus norvegicus. Kind of experiment: Compound evaluated in vivo and negative logarithm of effective dose divided by estimated volume of distribution (67 mL/kg) determined. As to conditions: read-out: pA2 (converted). It is filed as ADME, organism-based.

`NC(=O)CC[C@@H]1NC(=O)[C@H](Cc2ccccc2)NC(=O)[C@H](Cc2ccc(O)cc2)NC(=O)CC2(CCCCC2)SSC[C@@H](C(=O)N2CCC[C@H]2C(=O)N[C@H](CCCN=C(N)N)C(=O)NCC(N)=O)NC(=O)[C@H](CC(N)=O)NC1=O` [listing 1 of 2 here]: the Antidiuretic activity in experiment [1] stood at 0.31 U/mg. Further, the Effective dose in experiment [2] stood at 0.2 nM/kg.
In experiment [1], `CCC1(CC)CC(=O)N[C@@H](Cc2ccc(O)cc2)C(=O)N[C@H](Cc2ccccc2)C(=O)N[C@@H](C(C)C)C(=O)N[C@H](CC(N)=O)C(=O)N[C@@H](C(=O)N2CCC[C@H]2C(=O)N[C@@H](CCCN=C(N)N)C(=O)NCC(N)=O)CSS1` displayed an Antidiuretic activity of 1.5 U/mg. The compound further gave an Effective dose in experiment [2] of 0.38 nM/kg. The results for the Kb in experiment [3], in experiment [4] and in experiment [5] were 47.9 nM, 21.9 nM and 5.13 nM, respectively.
Take `CC(C)[C@@H]1NC(=O)[C@H](Cc2ccccc2)NC(=O)[C@H](Cc2ccc(O)cc2)NC(=O)CC(C)(C)SSC[C@@H](C(=O)N2CCC[C@H]2C(=O)N[C@H](CCCN=C(N)N)C(=O)NCC(N)=O)NC(=O)[C@H](CC(N)=O)NC1=O` [listing 1 of 2 here]: in experiment [4], the Kb was 75.9 nM.
With `CCC1(CC)CC(=O)N[C@@H](Cc2ccc(O)cc2)C(=O)N[C@H](Cc2ccccc2)C(=O)N[C@@H](C(C)C)C(=O)N[C@H](CC(N)=O)C(=O)N[C@@H](C(=O)N2CCC[C@H]2C(=O)N[C@H](CCCN=C(N)N)C(=O)NCC(N)=O)CSS1`, the Antidiuretic activity in experiment [1] was 0.71 U/mg. Also, in experiment [2], the Effective dose turned out to be 0.35 nM/kg. In addition, the Kb in experiment [3] is 51.3 nM; in experiment [4], 61.7 nM; in experiment [5], 6.61 nM.
On to `CCC1(CC)CC(=O)N[C@@H](Cc2ccc(O)cc2)C(=O)N[C@@H](Cc2ccccc2)C(=O)N[C@@H](CCC(N)=O)C(=O)N[C@@H](CC(N)=O)C(=O)N[C@H](C(=O)N2CCC[C@H]2C(=O)N[C@@H](CCCN=C(N)N)C(=O)NCC(N)=O)CSS1` [listing 1 of 2 here], for which the Kb was 50.1 nM in experiment [3], 69.2 nM in experiment [4] and 4.37 nM in experiment [5].
In the case of `CC1(C)CC(=O)N[C@@H](Cc2ccc(O)cc2)C(=O)N[C@@H](Cc2ccccc2)C(=O)N[C@@H](CCC(N)=O)C(=O)N[C@@H](CC(N)=O)C(=O)N[C@H](C(=O)N2CCC[C@H]2C(=O)N[C@@H](CCCN=C(N)N)C(=O)NCC(N)=O)CSS1` [listing 1 of 2 here], the Kb in experiment [4] was 1170 nM.
In the case of `NC(=O)CC[C@@H]1NC(=O)[C@H](Cc2ccccc2)NC(=O)[C@H](Cc2ccc(O)cc2)NC(=O)CC2(CCCCC2)SSC[C@@H](C(=O)N2CCC[C@H]2C(=O)N[C@H](CCCN=C(N)N)C(=O)NCC(N)=O)NC(=O)[C@H](CC(N)=O)NC1=O` [listing 2 of 2 here], the Kb is 107 nM in experiment [3], 257 nM in experiment [4] and 3.02 nM in experiment [5].
In the case of `CC(C)[C@@H]1NC(=O)[C@H](Cc2ccccc2)NC(=O)[C@H](Cc2ccc(O)cc2)NC(=O)CC2(CCCCC2)SSC[C@@H](C(=O)N2CCC[C@H]2C(=O)N[C@@H](CCCN=C(N)N)C(=O)NCC(N)=O)NC(=O)[C@H](CC(N)=O)NC1=O` (HELM PEPTIDE1{Y.F.V.N.C.P.R.G.[am]}|CHEM1{[O=C(CC1(S[*:2])CCCCC1)[*:1]]}$PEPTIDE1,CHEM1,1:R1-1:R1|PEPTIDE1,CHEM1,5:R3-1:R2$$$V2.0), the Antidiuretic activity in experiment [1] came out at 0.32 U/mg. Moreover, in experiment [2], the Effective dose stood at 0.76 nM/kg.
`CCC1(CC)CC(=O)N[C@@H](Cc2ccc(O)cc2)C(=O)N[C@@H](Cc2ccccc2)C(=O)N[C@@H](CCC(N)=O)C(=O)N[C@@H](CC(N)=O)C(=O)N[C@H](C(=O)N2CCC[C@H]2C(=O)N[C@@H](CCCN=C(N)N)C(=O)NCC(N)=O)CSS1` [listing 2 of 2 here] displayed an Antidiuretic activity in experiment [1] of 0.38 U/mg. Also, the Effective dose in experiment [2] turned out to be 0.32 nM/kg.
Consider `CC(C)[C@@H]1NC(=O)[C@H](Cc2ccccc2)NC(=O)[C@H](Cc2ccc(O)cc2)NC(=O)CC2(CCCCC2)SSC[C@@H](C(=O)N2CCC[C@H]2C(=O)N[C@H](CCCN=C(N)N)C(=O)NCC(N)=O)NC(=O)[C@H](CC(N)=O)NC1=O` (HELM PEPTIDE1{Y.F.V.N.C.P.[dR].G.[am]}|CHEM1{[O=C(CC1(S[*:2])CCCCC1)[*:1]]}$PEPTIDE1,CHEM1,1:R1-1:R1|PEPTIDE1,CHEM1,5:R3-1:R2$$$V2.0) [listing 1 of 2 here], for which the Effective dose in experiment [2] was 1.5 nM/kg.
Consider `CC1(C)CC(=O)N[C@@H](Cc2ccc(O)cc2)C(=O)N[C@@H](Cc2ccccc2)C(=O)N[C@@H](CCC(N)=O)C(=O)N[C@@H](CC(N)=O)C(=O)N[C@H](C(=O)N2CCC[C@H]2C(=O)N[C@@H](CCCN=C(N)N)C(=O)NCC(N)=O)CSS1` [listing 2 of 2 here], for which the Effective dose in experiment [2] was 3.2 nM/kg.
For the compound `NC(=O)CC[C@@H]1NC(=O)[C@H](Cc2ccccc2)NC(=O)[C@H](Cc2ccc(O)cc2)NC(=O)CC2(CCCCC2)SSC[C@@H](C(=O)N2CCC[C@H]2C(=O)N[C@@H](CCCN=C(N)N)C(=O)NCC(N)=O)NC(=O)[C@H](CC(N)=O)NC1=O` [listing 1 of 2 here], the Effective dose in experiment [2] is 0.34 nM/kg.
For the compound `CCC1(CC)CC(=O)N[C@@H](Cc2ccc(O)cc2)C(=O)N[C@H](Cc2ccccc2)C(=O)N[C@@H](CCC(N)=O)C(=O)N[C@H](CC(N)=O)C(=O)N[C@@H](C(=O)N2CCC[C@H]2C(=O)N[C@H](CCCN=C(N)N)C(=O)NCC(N)=O)CSS1`, in experiment [1], the Antidiuretic activity came to 0.06 U/mg. The Effective dose in experiment [2] amounted to 0.81 nM/kg. Further, the Kb is 112 nM in experiment [3], 200 nM in experiment [4] and 11 nM in experiment [5].
On to `CC1(C)CC(=O)N[C@@H](Cc2ccc(O)cc2)C(=O)N[C@H](Cc2ccccc2)C(=O)N[C@@H](CCC(N)=O)C(=O)N[C@H](CC(N)=O)C(=O)N[C@@H](C(=O)N2CCC[C@H]2C(=O)N[C@H](CCCN=C(N)N)C(=O)NCC(N)=O)CSS1`, for which the Antidiuretic activity in experiment [1] was found to be 5.8 U/mg. Also, the Effective dose in experiment [2] was 2.5 nM/kg. Also, the Kb is 13.5 nM in experiment [3], 195 nM in experiment [4] and 35.5 nM in experiment [5].
As to `CC(C)[C@@H]1NC(=O)[C@H](Cc2ccccc2)NC(=O)[C@H](Cc2ccc(O)cc2)NC(=O)CC2(CCCCC2)SSC[C@@H](C(=O)N2CCC[C@H]2C(=O)N[C@H](CCCN=C(N)N)C(=O)NCC(N)=O)NC(=O)[C@H](CC(N)=O)NC1=O` (HELM PEPTIDE1{Y.F.V.N.C.P.[dR].G.[am]}|CHEM1{[O=C(CC1(S[*:2])CCCCC1)[*:1]]}$PEPTIDE1,CHEM1,1:R1-1:R1|PEPTIDE1,CHEM1,5:R3-1:R2$$$V2.0) [listing 2 of 2 here], the Kb in experiment [3] was 234 nM; in experiment [4], 589 nM.
As for `CC(C)[C@@H]1NC(=O)[C@H](Cc2ccccc2)NC(=O)[C@H](Cc2ccc(O)cc2)NC(=O)CC(C)(C)SSC[C@@H](C(=O)N2CCC[C@H]2C(=O)N[C@H](CCCN=C(N)N)C(=O)NCC(N)=O)NC(=O)[C@H](CC(N)=O)NC1=O` [listing 2 of 2 here], in experiment [1], the Antidiuretic activity amounted to 123 U/mg. This compound also had an Effective dose in experiment [2] of 1.1 nM/kg.
`CC(C)[C@@H]1NC(=O)[C@@H](Cc2ccccc2)NC(=O)[C@H](Cc2ccc(O)cc2)NC(=O)CC(C)(C)SSC[C@H](C(=O)N2CCC[C@H]2C(=O)N[C@@H](CCCN=C(N)N)C(=O)NCC(N)=O)NC(=O)[C@@H](CC(N)=O)NC1=O` yielded an Antidiuretic activity in experiment [1] of 312 U/mg. In experiment [2], this compound registered an Effective dose of 0.84 nM/kg. For the same compound, the Kb in experiment [3] is 8.13 nM; in experiment [4], 19.1 nM; in experiment [5], 12 nM.
For the compound `NC(=O)CC[C@@H]1NC(=O)[C@H](Cc2ccccc2)NC(=O)[C@H](Cc2ccc(O)cc2)NC(=O)CC2(CCCCC2)SSC[C@@H](C(=O)N2CCC[C@H]2C(=O)N[C@@H](CCCN=C(N)N)C(=O)NCC(N)=O)NC(=O)[C@H](CC(N)=O)NC1=O` [listing 2 of 2 here], the results for the Kb in experiment [3] and in experiment [4] were 47.9 nM and 53.7 nM, respectively.
